In PubChem BioAssay (NCI) one finds GI50 and TGI data, which are given here for 17 molecules.

Common to all, as to test: inhibition of tumour cell growth, NCI panel, 48 h
The test system of experiment [1] is A498 renal.
Experiment [2] deals with ACHN renal.
Experiment [3] concerns OVCAR-4 ovarian.
Experiment [4] deals with SN12C renal.
Experiment [5] deals with SF-268 CNS.
Experiment [6] relates to PC-3 prostate.
Experiment [7] has as its system M14 melanoma.
Experiment [8] concerns U251 CNS.
Experiment [9] deals with A549 NSCLC.
Experiment [10] concerns NCI-H460 lung.

Where “and” joins values, the source holds several entries; their conditions need not be identical. Equal values may be shown once.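 In this assay, cells in 96-well plates receive the compound at five concentrations for 48 hours. Endpoints are linearly interpolated between the surrounding concentrations. The concentration for 50% growth inhibition is given as GI50. TGI: concentration producing complete growth inhibition.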 Where only a bound is given, the exact number is not on record here.

As for `CC(C)(C)c1ccc(S(=O)(=O)Oc2ccc3c4c(c(=O)oc3c2)CCCCC4)cc1`, the GI50 in experiment [1] was 6.53 µM; in experiment [2], 14.4 µM; in [3] it was 8.13 µM; in experiment [4] it was 29.3 µM; in experiment [5], 39.7 µM; in [6], 2.22 µM. Besides, the GI50 in [7] was 20.4 µM; in experiment [8], 12.5 µM; in experiment [9], 14.2 µM; in [10], 7.3 µM. In addition, the TGI in experiment [1] was 36.3 µM; in experiment [2], 34.6 µM; in experiment [3], 40.7 µM; in experiment [4], greater than 100 µM; in experiment [5], greater than 100 µM; in experiment [6] it was greater than 100 µM. Also, the TGI was greater than 100 µM in experiment [7], 54.4 µM in experiment [8], 39.8 µM in experiment [9] and greater than 100 µM in experiment [10].

For `O=C1CSCc2sccc21`, the TGI in experiment [1], in experiment [2], in experiment [3], in [4], in [5] and in experiment [6] was greater than 100 µM in each case. Besides, the TGI in experiment [7], in [8], in experiment [9] and in experiment [10] was greater than 100 µM in each case.

`COc1cc2c(cc1OC)[C@@H](Nc1ccc(C#N)cc1)C1COC(=O)[C@@H]1C2c1cc(OC)c(O)c(OC)c1` (stereo partly drawn): the TGI in [1] is 0.794 µM; in [2] it was 1.01 µM; in experiment [3] it was 75.1 µM and > 100 µM; in [4], 2.28 µM; in experiment [6] it was greater than 100 µM; in [7], 95 µM and > 100 µM. The TGI was 7.31 µM and 4.95 µM in experiment [9]; 1.05 µM and 1.72 µM in experiment [10]. Also, the GI50 was 19.1 µM and 26.8 µM in experiment [3]; 0.342 µM and 0.663 µM in [5]; 0.515 µM and 0.342 µM in [7]; 0.0457 µM and 0.178 µM in [8]; 0.147 µM and 0.1 µM in experiment [9].

On to `CCOC(=O)C1Cc2c(cc3c4c(cccc24)N(C(C)=O)C3)N(C)C1` (stereo not drawn), for which the TGI in [1], in experiment [2], in experiment [3], in [4], in [5] and in experiment [6] was greater than 100 µM throughout. The TGI in experiment [7], in [8], in [9] and in [10] was greater than 100 µM in each case.

Consider `O=Nc1ccc(O)c(=O)cc1`, for which the GI50 in [1] was 4.89 µM; in experiment [2], 0.906 µM; in [3], 1.71 µM; in [4], 2.95 µM; in experiment [5], 3.43 µM; in [6], 3.77 µM. The GI50 was 2.52 µM in experiment [7], 3.08 µM in experiment [8], 12.3 µM in experiment [9] and 4.76 µM in experiment [10]. For the same molecule, the TGI stood at 28.6 µM in experiment [1]; 2.63 µM in experiment [2]; 4.83 µM in experiment [3]; 12.4 µM in experiment [4]; 10.6 µM in experiment [5]; 16.2 µM in [6]. Also, the TGI in experiment [7] was 7.01 µM; in experiment [8], 11.6 µM; in experiment [9] it was 68.9 µM; in experiment [10], 23.5 µM.

On to `CCCCCCCCCCCCOC1C(CNC(=O)C2OC3OC(C)(C)OC3C2NC(=O)Nc2ccc(CC(=O)OC)cc2)OC2OC(C)(C)OC21` (stereo not drawn), for which the GI50 in [1], in experiment [2], in experiment [3], in experiment [4], in [5] and in [6] was greater than 100 µM each time. The GI50 was 22.7 µM in experiment [7], 18.3 µM in experiment [8], greater than 100 µM in [9] and greater than 100 µM in experiment [10]. Moreover, the TGI in [1], in [2], in experiment [3], in experiment [4], in [5] and in experiment [6] was greater than 100 µM in each case. Moreover, the TGI in experiment [7], in experiment [8], in experiment [9] and in experiment [10] was greater than 100 µM each time.

Take `CCOC(=O)c1cc(C(=O)c2cc(OC)c(OC)c(OC)c2)n2ncccc12`: the GI50 is 0.0466 µM in [1]; 1.34 µM in experiment [2]; 0.805 µM in experiment [3]; 0.821 µM in experiment [4]; 3.02 µM in [5]; 0.289 µM in [6]. Also, the GI50 in experiment [7] is 0.229 µM; in experiment [8], 0.444 µM; in experiment [9], 0.621 µM; in experiment [10], 0.335 µM. For the same molecule, the TGI in experiment [1] was 0.742 µM; in [2], greater than 100 µM; in experiment [3], greater than 100 µM; in experiment [4], greater than 100 µM; in experiment [5], greater than 100 µM; in [6], greater than 100 µM. For the same molecule, the TGI in [7] is greater than 100 µM; in experiment [8], 37.1 µM; in [9] it was greater than 100 µM; in experiment [10], greater than 100 µM.

Consider `c1ccc2sc(SCCSc3nc4ccccc4s3)nc2c1`, for which the TGI in [1], in [2], in experiment [3], in experiment [4], in experiment [5] and in [6] was greater than 100 µM each time. Also, the TGI in [7], in experiment [8], in [9] and in experiment [10] was greater than 100 µM in each case.

`COc1ccc(/C=C(/C#N)C(N)=O)c(OC)c1`: the TGI was 25.7 µM in [1]; greater than 100 µM in experiment [2]; greater than 100 µM in experiment [3]; greater than 100 µM in [4]; greater than 100 µM in experiment [5]; greater than 100 µM in experiment [6]. The TGI in experiment [7], in experiment [8], in experiment [9] and in experiment [10] was greater than 100 µM throughout.

For the molecule `COc1ccc2c(c1)/C(=C\c1c(-c3cc(OC)ccc3OC)nc3sc(C)cn13)C(=O)N2C`, the GI50 in [1] is 27.2 µM; in experiment [2] it was 28.2 µM; in experiment [3] it was 20.9 µM; in [4] it was 24.7 µM; in [5], 28.6 µM; in experiment [6], 16.3 µM. In addition, the GI50 in experiment [7] is 26.1 µM; in experiment [8], 39.7 µM; in experiment [9], 38.6 µM; in experiment [10], 24.9 µM. Besides, the TGI in [1] is 98.7 µM; in experiment [2] it was greater than 100 µM; in experiment [3], greater than 100 µM; in experiment [4] it was greater than 100 µM; in experiment [5], greater than 100 µM; in experiment [6], 93.8 µM. In addition, the TGI in experiment [7] is 71.4 µM; in [8], greater than 100 µM; in experiment [9] it was greater than 100 µM; in experiment [10] it was 93.9 µM.

With `CC(N)C(Cc1ccc(Cl)cc1)c1ccc(Cl)cc1` (stereo not drawn), the GI50 is 15.1 µM in experiment [1]; 4.85 µM in experiment [2]; 11.4 µM in experiment [3]; 11.4 µM in [4]; 11.4 µM in experiment [5]; 12.8 µM in experiment [6]. Further, the GI50 in [7] is 5.53 µM; in experiment [8], 12.3 µM; in experiment [9], 14 µM; in [10], 5.55 µM. The TGI in experiment [1] is 30.7 µM; in [2], 18.5 µM; in experiment [3], 25.7 µM; in experiment [4], 26.7 µM; in experiment [5] it was 26.5 µM; in experiment [6], 26.3 µM. Further, the TGI is 18.9 µM in experiment [7], 25.9 µM in experiment [8], 29.4 µM in [9] and 18.5 µM in experiment [10].

In the case of `NNC(=S)N/N=C(\C(=O)Nc1cccc(O)c1)C1C(=O)NC(=S)NC1=O`, the TGI in experiment [1], in [2], in experiment [3], in experiment [4], in experiment [5] and in experiment [6] was greater than 100 µM throughout. Besides, the TGI in [7], in experiment [8], in [9] and in [10] was greater than 100 µM throughout.

In the case of `Cc1cc(S(=O)(=O)Nc2nc3ccccc3o2)c(SCc2ccccc2)cc1Cl`, the GI50 in [1] was 23.1 µM; in experiment [2], 17.9 µM; in [3] it was 25.4 µM; in experiment [4] it was 32.1 µM; in [5], 18.9 µM; in experiment [6] it was 16.1 µM. The GI50 was 17.5 µM in experiment [7], 16.1 µM in experiment [8], 21.7 µM in experiment [9] and 15.5 µM in experiment [10]. For the same molecule, the TGI in experiment [1] was found to be 43.3 µM; in experiment [2], 38.4 µM; in experiment [3], 67.9 µM; in experiment [4], 90.1 µM; in experiment [5], 47.7 µM; in experiment [6], 30.5 µM. In addition, the TGI in experiment [7] came out at 38 µM; in experiment [8], 31 µM; in experiment [9], 45.3 µM; in [10], 52.2 µM.

Consider `CCN(CCCN(C)C)Cc1cc(I)cc(C)c1O`, for which the GI50 was 20.4 µM in [1]; 24.9 µM in [2]; 48.7 µM in [3]; 59.9 µM in [4]; 18.7 µM in experiment [5]; 21.5 µM in experiment [6]. Moreover, the GI50 is 16.6 µM in experiment [7], 21.2 µM in [8], 28.3 µM in experiment [9] and 16.4 µM in experiment [10]. Besides, the TGI in experiment [1] is 38.6 µM; in [2], 58.6 µM; in experiment [3], greater than 100 µM; in [4], greater than 100 µM; in experiment [5] it was 45.7 µM; in experiment [6], 65.8 µM. The TGI in experiment [7] was determined as 31 µM; in [8] it was 43.6 µM; in [9], 90 µM; in [10], 38 µM.

Consider `COC[C@@H](N=C1NC(=O)/C(=C/c2ccc3ncccc3c2)S1)c1ccccc1`, for which the GI50 in experiment [1] was 4.25 µM; in [2], 9.24 µM; in [3], 5.16 µM; in experiment [4], 8.52 µM; in experiment [5], 11.8 µM; in [6] it was 12.1 µM. Moreover, the GI50 in [7] was 13 µM; in [8], 4.32 µM; in experiment [9] it was 6.72 µM; in [10], 8 µM. Also, the TGI in [1] was 12.5 µM; in experiment [2], greater than 25 µM; in experiment [3], greater than 25 µM; in experiment [4] it was greater than 25 µM; in experiment [5], greater than 25 µM; in [6] it was greater than 25 µM. In addition, the TGI in experiment [7], in [8], in experiment [9] and in experiment [10] was greater than 25 µM each time.

For `COc1cc(Nc2nc3cc(N)cc(N)c3nc2-c2ccccc2)cc(OC)c1OC`, the GI50 was 31.3 µM in [1]; 16.7 µM in [2]; 0.0313 µM in experiment [3]; 20.4 µM in experiment [4]; 18.1 µM in experiment [5]; 14.2 µM in experiment [6]. The GI50 in experiment [7] was 19.6 µM; in experiment [8] it was 24.6 µM; in experiment [9] it was 29.8 µM; in experiment [10] it was 17.1 µM. Moreover, the TGI is greater than 100 µM in [1]; 43 µM in experiment [2]; 0.892 µM in [3]; 83.7 µM in [4]; 60.8 µM in experiment [5]; 59.3 µM in experiment [6]. The TGI is 44.9 µM in experiment [7], greater than 100 µM in [8], greater than 100 µM in [9] and 52.8 µM in experiment [10].

With `OCCN1CCN(CCCN2c3ccccc3Sc3ccc(Cl)cc32)CC1`, the GI50 in experiment [1] was 1.56 µM; in experiment [2] it was 3.8 µM; in [3] it was 4.49 µM; in experiment [4], 3.42 µM; in [5], 2.79 µM; in experiment [6], 2.64 µM. In addition, the GI50 in [7] was 1.88 µM; in experiment [8], 1.9 µM; in [9], 3.68 µM; in experiment [10], 1.98 µM. The TGI stood at 5.87 µM in experiment [1]; 13.6 µM in [2]; 17.4 µM in experiment [3]; 14.2 µM in experiment [4]; 10.7 µM in experiment [5]; 12 µM in experiment [6]. Further, the TGI came to 3.6 µM in experiment [7], 4.33 µM in [8], 15.2 µM in experiment [9] and 4.22 µM in experiment [10].
